This passage reports IC50 results from US20220106301A1, “ACETAMIDO-PHENYLBENZAMIDE DERIVATIVES AND METHODS OF USING THE SAME” (Athenex, Inc., priority 2020, published 2022).

CYP3A4, sequence (P08684 whole entry): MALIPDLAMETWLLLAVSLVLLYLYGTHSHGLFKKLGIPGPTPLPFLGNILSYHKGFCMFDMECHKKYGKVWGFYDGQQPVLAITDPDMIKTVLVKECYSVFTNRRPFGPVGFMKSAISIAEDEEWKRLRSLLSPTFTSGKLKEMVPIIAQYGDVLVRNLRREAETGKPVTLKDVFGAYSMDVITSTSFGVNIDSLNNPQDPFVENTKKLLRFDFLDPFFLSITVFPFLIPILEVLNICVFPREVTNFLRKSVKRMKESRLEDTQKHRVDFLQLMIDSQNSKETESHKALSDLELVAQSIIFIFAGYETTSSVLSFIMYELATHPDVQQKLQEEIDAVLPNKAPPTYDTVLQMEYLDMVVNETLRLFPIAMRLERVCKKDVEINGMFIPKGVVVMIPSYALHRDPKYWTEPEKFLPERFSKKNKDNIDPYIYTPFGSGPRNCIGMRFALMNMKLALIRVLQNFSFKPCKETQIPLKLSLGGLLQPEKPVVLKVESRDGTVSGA

The experiment concerns the target CYP3A4 (Homo sapiens, UniProt P08684). Kind of experiment: Determination of CYP3A4 inhibitory activity (human liver microsome, Luciferin-IPA). The following applies: CYP3A4 IC50 (nM), 37° C. 11 minutes. The procedure:
The standard final Compound concentrations were 37, 111, 333, 1000, and 3000 nM. 12.5 μL of the Compound dilutions were transferred to a white 96-well plate. […] 25 μL of the buffer was added to each well. The plates were incubated at 37° C. for 11 minutes. 50 μL of luciferin detection reagent (Promega V9002) was added and the plates were incubated at room temperature for 5 minutes. The plate was read with a luminometer.
The dose-response curve and IC50 were obtained by fitting data to nonlinear regression model using GraphPad Prism software (v6.0).
As a reminder, the IC50 is the concentration that gives 50% inhibition. A high value points to lower potency. Turning to `CCN(CCc1ccc(NC(=O)c2cc(OC)c(OC)cc2NC(=O)c2cc(=O)c3ccccc3o2)cc1)Cc1ccc2c(c1)CCO2` [Compound 162], the half-maximal inhibitory concentration (IC50) was > 1000 nM.

For `COc1cc(NC(=O)c2cc(=O)c3ccccc3o2)c(C(=O)Nc2ccc(CCN(Cc3cncc(-n4ccnc4C)c3)Cc3ccc4c(cnn4C)c3)cc2)cc1OC` [Compound 58], the 50% inhibitory concentration (IC50) lay in the range of 500 to 1000 nM.

With `COc1cc(NC(=O)c2cc(=O)c3ccccc3o2)c(C(=O)Nc2ccc(CCN(Cc3ccc4c(cnn4C)c3)Cc3ccncc3F)cc2)cc1OC` [Compound 47], the half-maximal inhibitory concentration (IC50) was 250 to 500 nM.

On to `COc1cc(NC(=O)c2cc(=O)c3ccccc3o2)c(C(=O)Nc2ccc(CCN(C)Cc3cccc(-c4c[nH]cn4)c3)cc2)cc1OC` [Compound 13], for which the half-maximal inhibitory concentration (IC50) is > 1000 nM.

In turn, `COc1cc(NC(=O)C2CC(=O)c3cc(C)ccc3O2)c(C(=O)Nc2ccc(CCN(Cc3cccc(-n4ccnc4)c3)Cc3ccc4c(cnn4C)c3)cc2)cc1OC` (stereo not drawn) [Compound 199] showed a 50% inhibitory concentration (IC50) of 500 to 1000 nM.

For `COc1cc(NC(=O)c2cc(=O)c3ccccc3o2)c(C(=O)Nc2ccc(CCN(Cc3cncc(OCCN)c3)Cc3ccc4c(cnn4C)c3)cc2)cc1OC` [Compound 246], the IC50 was > 1000 nM.

With `COc1cc(NC(=O)c2cc(=O)c3ccccc3o2)c(C(=O)Nc2ccc(CCN(Cc3cccnc3)Cc3cccc4cnn(C)c34)cc2)cc1OC` [Compound 201], the IC50 lay in the range of 500 to 1000 nM.

Take `COc1cc(NC(=O)c2cc(=O)c3cc(C)ccc3o2)c(C(=O)Nc2ccc(CCN(Cc3cncc(-c4ccccc4)c3)Cc3ccc4c(cnn4C)c3)cc2)cc1OC` [Compound 255]: the IC50 was > 1000 nM.

For `CCOc1cncc(CN(CCc2ccc(NC(=O)c3cc(OC)c(OC)cc3NC(=O)c3cnc4ccccc4n3)cc2)Cc2ccc3c(cnn3C)c2)c1` [Compound 74], the concentration for half-maximal inhibition (IC50) was in the range of 250 to 500 nM.

Consider `COc1cc(NC(=O)c2cc(=O)c3ccccc3o2)c(C(=O)Nc2ccc(CCN(C)C(=O)CCc3cccnc3)cc2)cc1OC` [Compound 119], for which the half-maximal inhibitory concentration (IC50) is 100 to 250 nM.

On to `COc1cc(NC(=O)c2cc(=O)c3ccccc3o2)c(C(=O)Nc2ccc(CCN(Cc3ccc4c(cnn4C)c3)Cc3cncn3C)cc2)cc1OC` [Compound 21], for which the 50% inhibitory concentration (IC50) was < 100 nM.

Take `CCc1cn(-c2cccc(CN(C)CCc3ccc(NC(=O)c4cc(OC)c(OC)cc4NC(=O)c4cc(=O)c5ccccc5o4)cc3)c2)cn1` [Compound 105]: the IC50 lay within 100 to 250 nM.

For the compound `CCN(CCc1ccc(NC(=O)c2cc(OC)c(OC)cc2NC(=O)c2cc(=O)c3ccccc3o2)cc1)Cc1ccc(OC)c(O)c1` [Compound 133], the half-inhibitory concentration (IC50) is > 1000 nM.

With `COc1cc(NC(=O)c2cc(=O)c3cc(C)cc(C)c3o2)c(C(=O)Nc2ccc(CCN(Cc3cccnc3)Cc3ccc4c(cnn4C)c3)cc2)cc1OC` [Compound 39], the concentration for half-maximal inhibition (IC50) lay within 250 to 500 nM.

`CN(CCc1ccc(NC(=O)c2ccc(C(=O)OCc3cncs3)cc2NC(=O)c2cc(=O)c3ccccc3o2)cc1)Cc1ccc2c(cnn2C)c1` [Compound 85] returned a concentration for half-maximal inhibition (IC50) of 250 to 500 nM.

`COc1cc(NC(=O)c2cc(=O)c3ccccc3o2)c(C(=O)Nc2ccc(CCN(Cc3cncc(O)c3)Cc3ccc4c(cnn4C)c3)cc2)cc1OC` [Compound 223] came in with a 50% inhibitory concentration (IC50) of 100 to 250 nM.

In turn, `COc1cc(NC(=O)c2cc(=O)c3ccccc3o2)c(C(=O)Nc2ccc(CCNCc3cccc(-n4ccnc4)c3)cc2)cc1OC` [Compound 125] came in with an IC50 of 100 to 250 nM.

`COc1cc(NC(=O)C2CC(=O)c3ccccc3O2)c(C(=O)Nc2ccc(CCN(C)Cc3ccc(-c4cccnc4)cc3)cc2)cc1OC` (stereo not drawn) [Compound 88]: the IC50 fell in the range of 500 to 1000 nM.

With `CCCN(CCc1ccc(NC(=O)c2cc(OC)c(OC)cc2NC(=O)c2cc(=O)c3ccccc3o2)cc1)Cc1cccc(-n2ccnc2)c1` [Compound 90], the IC50 fell in the range of 250 to 500 nM.

For the compound `COc1cc(NC(=O)c2cc(=O)c3ccccc3o2)c(C(=O)Nc2ccc(CCN(C)Cc3cccc(-n4ccnc4)c3)cc2)cc1OC` [Compound 3], the IC50 is 100 to 250 nM.

For the compound `COc1ccc(CN(CCc2ccc(NC(=O)c3ccc(C(=O)OCc4cccnc4)cc3NC(=O)c3cc(=O)c4ccccc4o3)cc2)Cc2ccc(OC)c(OC)c2)cc1OC` [Compound 265], the IC50 is > 1000 nM.

For the compound `COc1cc(NC(=O)c2cc(=O)c3ccccc3o2)c(C(=O)Nc2ccc(CCN(Cc3cccnc3)Cc3ccc(C)c4ncccc34)cc2)cc1OC` [Compound 250], the half-inhibitory concentration (IC50) lay within 100 to 250 nM.

Take `CCN(CCc1ccc(NC(=O)c2cc(OC)c(OC)cc2NC(=O)c2cc(=O)c3ccccc3o2)cc1)Cc1ccc2c(cnn2CC)c1` [Compound 192]: the IC50 is > 1000 nM.

Turning to `CCOc1cc(C(=O)Nc2ccc(CCN(C)Cc3ccc4c(cnn4C)c3)cc2)c(NC(=O)c2cc(=O)c3ccccc3o2)cc1OC` [Compound 111], the IC50 is > 1000 nM.

Turning to `COc1cc(NC(=O)c2cc(=O)c3ccccc3o2)c(C(=O)Nc2ccc(CCN(Cc3cccnc3)Cc3ccc4cnn(C)c4c3)cc2)cc1OC` [Compound 32], the 50% inhibitory concentration (IC50) was < 100 nM.

The compound `COc1cc(NC(=O)c2cc(=O)c3cc(C)ccc3o2)c(C(=O)Nc2ccc(CCN(Cc3cccnc3)Cc3ccc4c(c3)c(C)nn4C)cc2)cc1OC` [Compound 66] returned an IC50 of 100 to 250 nM.

Regarding `COc1cc(NC(=O)c2cc(=O)c3ccccc3o2)c(C(=O)Nc2ccc(CCN(C)Cc3ccc(-c4nn[nH]n4)cc3)cc2)cc1OC` [Compound 148], the IC50 was > 1000 nM.

`COc1cc(NC(=O)c2cc(=O)c3cc(C)cc(C)c3o2)c(C(=O)Nc2ccc(CCN(Cc3cccc(-n4ccnc4)c3)Cc3ccc4c(cnn4C)c3)cc2)cc1OC` [Compound 197]: the IC50 was > 1000 nM.

As to `COc1cc(NC(=O)c2cc(=O)c3ccccc3o2)c(C(=O)NCc2ccc(CN(Cc3cccc(-c4cncs4)c3)Cc3ccc4c(cnn4C)c3)cc2)cc1OC` [Compound 236], the IC50 was > 1000 nM.

As for `COc1cc(NC(=O)c2cc(=O)c3ccccc3o2)c(C(=O)Nc2ccc(CCN(Cc3ccc4c(cnn4C)c3)Cc3ccc[n+]([O-])c3)cc2)cc1OC` [Compound 225], the IC50 was > 1000 nM.

On to `CCN(CCc1ccc(NC(=O)c2cc(OC)c(OC)cc2NC(=O)c2cc(=O)c3ccccc3o2)cc1)Cc1ccc2c(c1)n(C)c(=O)n2C` [Compound 161], for which the IC50 was > 1000 nM.

In the case of `COc1cc(NC(=O)c2cnc3ccccc3n2)c(C(=O)Nc2ccc(CCN(Cc3ccc4c(c3)n(C)c(=O)n4C)Cc3ccc4c(c3)n(C)c(=O)n4C)cc2)cc1OC` [Compound 169], the IC50 is > 1000 nM.

Turning to `COC(=O)c1ccc(C(=O)Nc2ccc(CCN(C)Cc3ccc4c(cnn4C)c3)cc2)c(NC(=O)c2cnc3ccccc3c2)c1` [Compound 281], the 50% inhibitory concentration (IC50) was > 1000 nM.

In the case of `COc1cc(NC(=O)c2cc(=O)c3ccccc3o2)c(C(=O)Nc2ccc(CCN(CCN3CCOCC3)Cc3ccc4c(cnn4C)c3)cc2)cc1OC` [Compound 149], the 50% inhibitory concentration (IC50) is > 1000 nM.

Take `COc1cncc(CN(Cc2ccc(CNC(=O)c3cc(OC)c(OC)cc3NC(=O)c3cc(=O)c4ccccc4o3)cc2)Cc2ccc3c(cnn3C)c2)c1` [Compound 235]: the IC50 lay within 100 to 250 nM.

As to `CCn1ncc2cc(CN(CCc3ccc(NC(=O)c4cc(OC)c(OC)cc4NC(=O)c4cc(=O)c5ccccc5o4)cc3)Cc3cccnc3)ccc21` [Compound 248], the IC50 was in the range of 250 to 500 nM.

Regarding `COc1cc(NC(=O)c2cc(=O)c3ccccc3o2)c(C(=O)Nc2ccc(CCN(Cc3ccc(-c4ccncc4)cc3)Cc3ccc4c(cnn4C)c3)cc2)cc1OC` [Compound 188], the IC50 is > 1000 nM.

As for `COc1cc(NC(=O)c2cc(=O)c3ccccc3o2)c(C(=O)NCc2ccc(CN(Cc3ccc4c(cnn4C)c3)Cc3ccccc3-n3ccnc3)cc2)cc1OC` [Compound 232], the half-inhibitory concentration (IC50) was < 100 nM.

With `COc1cc(NC(=O)c2cc(=O)c3ccccc3o2)c(C(=O)Nc2ccc(CCN(C)Cc3ccc4c(c3)CNN4C)cc2)cc1OC` [Compound 12], the IC50 is > 1000 nM.

Consider `COc1cc(NC(=O)c2cc(=O)c3ccccc3o2)c(C(=O)Nc2ccc(CCN(Cc3cccc(-n4ccnc4C)c3)Cc3ccc4c(cnn4C)c3)cc2)cc1OC` [Compound 249], for which the IC50 was > 1000 nM.

As for `COCCOc1cncc(CN(CCc2ccc(NC(=O)c3cc(OC)c(OC)cc3NC(=O)c3cc(=O)c4cc(C)ccc4o3)cc2)Cc2ccc3c(c2)c(C)nn3C)c1` [Compound 68], the IC50 lay in the range of 100 to 250 nM.

Compound `COc1cc(NC(=O)c2cc(=O)c3ccccc3o2)c(C(=O)Nc2ccc(CCN(Cc3cccc(OC[C@@H]4CO[C@@](Cn5ccnc5)(c5ccc(Cl)cc5Cl)O4)c3)Cc3ccc4c(cnn4C)c3)cc2)cc1OC` [Compound 242] yielded a half-maximal inhibitory concentration (IC50) of 250 to 500 nM.

With `COc1cc(NC(=O)c2cc(=O)c3ccccc3o2)c(C(=O)Nc2ccc(CCN(C)Cc3ccc4c(c3)CCO4)cc2)cc1OC` [Compound 155], the IC50 was > 1000 nM.

As to `COc1cc(NC(=O)c2cc(=O)c3ccccc3o2)c(C(=O)Nc2ccc(CCN(C)Cc3ccc4c(c3)ncn4C)cc2)cc1OC` [Compound 98], the half-maximal inhibitory concentration (IC50) was > 1000 nM.

As to `COc1cc(NC(=O)c2cc(=O)c3ccccc3o2)c(C(=O)Nc2ccc(CCN(Cc3ccc4c(cnn4C)c3)Cc3cncs3)cc2)cc1OC` [Compound 140], the IC50 was > 1000 nM.

Regarding `COc1cc(NC(=O)c2cnc3ccccc3n2)c(C(=O)Nc2ccc(CCN(Cc3cccc(-n4ccnc4)c3)Cc3ccc4c(cnn4C)c3)cc2)cc1OC` [Compound 30], the IC50 lay in the range of 500 to 1000 nM.

In the case of `COc1cc(NC(=O)c2cc(=O)c3ccccc3o2)c(C(=O)Nc2ccc(CCN(Cc3cncc(C)c3)Cc3ccc4c(cnn4C)c3)cc2)cc1OC` [Compound 57], the concentration for half-maximal inhibition (IC50) is 250 to 500 nM.

As for `COc1cc(NC(=O)c2cc(=O)c3ccccc3o2)c(C(=O)Nc2ccc(CCN(C)Cc3ccc4c(c3)OCO4)cc2)cc1OC` [Compound 138], the IC50 is > 1000 nM.

As for `COc1cc(NC(=O)c2cc(=O)c(O)co2)c(C(=O)Nc2ccc(CCN(C)Cc3cccc(-n4ccnc4)c3)cc2)cc1OC` [Compound 129], the IC50 was > 1000 nM.

Turning to `COc1cc(NC(=O)c2cc(=O)c3ccccc3o2)c(C(=O)Nc2ccc(CCN(Cc3cccnc3)Cc3cnc(-c4ccccc4F)nc3)cc2)cc1OC` [Compound 229], the IC50 is 250 to 500 nM.

Consider `COc1cc(NC(=O)c2cc(=O)c3ccccc3o2)c(C(=O)Nc2ccc(CCN(Cc3cncs3)Cc3cccc4cnn(C)c34)cc2)cc1OC` [Compound 200], for which the half-maximal inhibitory concentration (IC50) was > 1000 nM.
